Reference: patent US20090148886A1, “METHODS OF IDENTIFYING COMPOUNDS THAT DECREASE INTRAOCULAR PRESSURE” (The Arizona Board of Regents on behalf of the University of …, priority 2007, published 2009)

System: C57BL/6 mice and Best2^+/+, Best2^+/−, Best2^−/− littermates
Assay: IOP measurement by cannulation of the anterior chamber in control and drug-treated Best2 mice
Type: in vivo, mouse
Conditions: for Mean IOP: 10 μL of solution topically to each eye 2 hours before cannulation, mean ± SE
Procedure: IOP Measurements: IOP was measured in the mice by cannulation of the anterior chamber with Avertin® anesthesia (300 mg/kg injected intraperitoneally) as described in, e.g., Husain et al., Exp. Eye Res. 83:1453-1458, 2006; John et al., Invest. Ophthalmol. Vis. Sci. 38:249-253, 1997; Aihara et al., Invest. Ophthalmol. Vis. Sci. 44:5168-5173, 2003. In brief, the anterior chamber was cannulated with a borosilicate glass microneedle (1-mm outer diameter with a 50-μm inner diameter tip, beveled to 45°; Humagen, Charlottesville, Va.) filled with Hanks' balanced salt solution (HBSS) and connected to a pressure transducer (BLPR; World Precision Instruments, Sarasota, Fla.). The signal was amplified (Bridge8 amplifier; World Precision Instruments), converted from analog to digital (iWorx® model 108 converter; CB Sciences, Dover, N.H.), and recorded (LabScribe software ver. 1.6; CB Sciences, Dover, N.H.). IOP was recorded for a period of >90 seconds, and the IOP value determined from the average of each recording. […] All measurements were performed between 2 and 6 PM to avoid diurnal pressure variations. The apparatus was calibrated using a fluid reservoir the height of which could be adjusted to generate a series of known pressures. For experiments using timolol (0.5% solution; Bausch & Lomb, Tampa, Fla.) or brinzolamide (Azopt® 1% solution; Alcon, Fort Worth, Tex.), 10 μL of solution was administrated topically to each eye 2 hours before cannulation.

SMILES	IOP after treatment compared with treated C57BL/6 or Best2^+/+ mice (Best2^+/+ (so in the source) and Best2^−/− mice, lower than in C57BL/6 or Best2^+/+ mice)	Mean IOP (Best2^+/+ mice)	Mean IOP (Best2^+/− mice)	Mean IOP (Best2^−/− mice)	Mean IOP (C57BL/6 mice)	Effect on IOP (in words) (all mice tested)	Effect on IOP (in words) (Best2^−/− mice)	Effect on IOP (in words) (C57BL/6 and Best2^+/+ mice, P<0.005)
CCN[C@H]1CN(CCCOC)S(=O)(=O)c2sc(S(N)(=O)=O)cc21 [Brinzolamide, brinzolamide]	approximately 1 mm Hg	10.08 ± 0.33 mm Hg	9.56 ± 0.37 mm Hg	9.34 ± 0.34 mm Hg	10.51 ± 0.51 mm Hg	effective in lowering IOP in all mice tested	–	–
CC(C)(C)NC[C@H](O)COc1nsnc1N1CCOCC1 [Timolol, timolol]	–	9.57 ± 0.22 mm Hg	9.48 ± 0.12 mm Hg	9.49 ± 0.18 mm Hg	10.53 ± 0.29 mm Hg	–	less effective in lowering IOP	lowered IOP significantly
